Structures are written as SMILES. Several values for one entry are separate records, joined by “and”; a condition that tells them apart may be missing. Identical values can stand only once. Like-named read-outs stand apart in the source and are kept apart here.

The text below walks through data of patent US20230250088A1, “COMPOUNDS AND COMPOSITIONS FOR TREATING CONDITIONS ASSOCIATED WITH STING ACTIVITY” (IFM Due, Inc., priority 2020, published 2023).

This assay concerns the target T1, hSTING (Homo sapiens, UniProt Q86WV6, G230A/H232R/R293Q/R71H).
T1 construct: host or cells: THP1-Dual KO-IFNAR2 cells
Nature of the assay: STING reporter assay (luciferase) in THP1-Dual KO-IFNAR2 cells activated with 2′3′cGAMP. Type of assay: cell-based. The note with it: 2′3′cGAMP 15 μM final, Lipofectamine 2000, 24 h, luciferase reporter activity. As to the method:
STING pathway activation by the compounds described herein was measured using THP1-Dual™ cells (KO-IFNAR2).
THP1-Dual™ KO-IFNAR2 Cells (obtained from invivogen) were maintained in RPMI, 10% FCS, 5 ml P/S, 2 mM L-glut, 10 mM Hepes, and 1 mM sodium pyruvate. Compounds were spotted in empty 384 well tissue culture plates (Greiner 781182) by Echo for a final concentration of 0.0017-100 μM. Cells were plated into the TC plates at 40 μL per well, 2×10E6 cells/mL. For activation with STING ligand, 2′3′cGAMP (MW 718.38, obtained from Invivogen), was prepared in Optimem media.
The following solutions were prepared for each 1×384 plate: • Solution A: 2 mL Optimem with one of the following stimuli: • 60 μL of 10 mM 2′3′cGAMP→150 μM stock • Solution B: 2 mL Optimem with 60 μL Lipofectamine 2000→Incubate 5 min at RT
2 mL of solution A and 2 ml Solution B was mixed and incubated for 20 min at room temperature (RT). 20 μL of transfection solution (A+B) was added on top of the plated cells, with a final 2′3′cGAMP concentration of 15 μM. The plates were then centrifuged immediately at 340 g for 1 minute, after which they were incubated at 37° C., 5% CO2, >98% humidity for 24h. Luciferase reporter activity was then measured. EC50 values were calculated by using standard methods known in the art.
Luciferase reporter assay: 10 μL of supernatant from the assay was transferred to white 384-plate with flat bottom and squared wells. One pouch of QUANTI-Luc™ Plus was dissolved in 25 mL of water. 100 μL of QLC Stabilizer per 25 mL of QUANTI-Luc™ Plus solution was added. 50 μL of QUANTI-Luc™ Plus/QLC solution per well was then added. Luminescence was measured on a Platereader (e.g., Spectramax I3X (Molecular Devices GF3637001)).
Luciferase reporter activity was then measured. EC50 values were calculated by using standard methods known in the art.

Where [1] appears, read: THP1-Dual KO-IFNAR2 cells, read-out: hSTING EC50.
Setting [2] is: hSTING EC50, THP1-Dual KO-IFNAR2 cells.

T1 sequence (Q86WV6 whole entry R71H/G230A/H232R/R293Q): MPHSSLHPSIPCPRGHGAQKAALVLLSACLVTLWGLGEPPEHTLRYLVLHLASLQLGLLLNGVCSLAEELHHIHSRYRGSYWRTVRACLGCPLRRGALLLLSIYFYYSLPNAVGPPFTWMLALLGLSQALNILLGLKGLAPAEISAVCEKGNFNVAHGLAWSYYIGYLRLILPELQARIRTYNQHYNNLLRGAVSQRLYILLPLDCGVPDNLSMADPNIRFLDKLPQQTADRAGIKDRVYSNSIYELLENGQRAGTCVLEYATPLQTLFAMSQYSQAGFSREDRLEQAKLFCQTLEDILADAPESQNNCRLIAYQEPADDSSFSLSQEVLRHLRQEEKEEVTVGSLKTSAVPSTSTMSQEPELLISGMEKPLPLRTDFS

Regarding `O=C(Nc1c[nH]c2cc(F)c(F)cc12)c1c2ccccc2nn1Cc1ccc(C(F)(F)F)cc1` [Compound 101], the EC50 under setting [1] was in the range of 1000 to 5000 nM.
Still for that read-out and setting: under `O=C(Nc1c[nH]c2cc(F)c(F)cc12)c1c2ccccc2nn1CCC(F)(F)F` [Compound 102] stands 5000 to 100000 nM.
For the compound `O=C(Nc1c[nH]c2cc(F)c(F)cc12)c1nn(CCC(F)(F)F)c2ccccc12` [Compound 103], the 50% effective concentration (EC50) under setting [2] was in the range of 200 to 1000 nM.
For the compound `Cc1ccc2c(C(=O)Nc3c[nH]c4cc(F)c(F)cc34)cnn2c1` [Compound 104], the EC50 under setting [1] fell in the range of 200 to 1000 nM.
With `O=C(Nc1c[nH]c2cc(F)c(F)cc12)c1cnc2cc(C(F)(F)F)ccn12` [Compound 105], the EC50 under setting [1] lay within 1000 to 5000 nM.
With `O=C(Nc1c[nH]c2cc(F)c(F)cc12)c1nn(Cc2ccc(C(F)(F)F)cc2)c2ccccc12` [Compound 106, N-(5,6-difluoro-1H-indol-3-yl)-1-[[4-(trifluoromethyl)phenyl]methyl]indazole-3-carboxamide], the EC50 under setting [2] was in the range of 200 to 1000 nM.
As for `CC(C)(C)OC(=O)N1CCc2c(C(=O)Nc3c[nH]c4cc(F)c(F)cc34)csc2C1` [Compound 109, tert-butyl 3-((5,6-difluoro-1H-indol-3-yl)carbamoyl)-4.5-dihydrothieno[2,3-c]pyridine-6(7H)-carboxylate], the EC50 under setting [1] lay within 200 to 1000 nM.
The same measure, in the same setting: under `CC(C)(C)OC(=O)N1Cc2n[nH]c(C(=O)Nc3c[nH]c4cc(F)c(F)cc34)c2C1` [Compound 110, tert-butyl 3-((5,6-difluoro-1H-indol-3-yl)carbamoyl)-4,6-dihydropyrrolo[3,4-c]pyrazole-5(1H)-carboxylate] stands 1000 to 5000 nM.
`CC(C)(C)OC(=O)N1CCn2nc(C(=O)Nc3c[nH]c4cc(F)c(F)cc34)cc2C1` [Compound 111, tert-butyl 2-[(5,6-difluoro-1H-indol-3-yl)carbamoyl]-4H,5H,6H,7H-pyrazolo[1,5-a]pyrazine-5-carboxylate]: under setting [1], the EC50 was in the range of 1000 to 5000 nM.
For the compound `O=C(Nc1c[nH]c2cc(F)c(F)cc12)c1cc2cccnc2s1` [Compound 112, N-(5,6-difluoro-1H-indol-3-yl)thieno[2,3-b]pyridine-2-carboxamide], under setting [1], the EC50 is 1000 to 5000 nM.
As for `O=C(Nc1c[nH]c2cc(F)c(F)cc12)c1cn2cc(C(F)(F)F)ccc2n1` [Compound 113, N-(5,6-difluoro-1H-indol-3-yl)-6-(trifluoromethyl)imidazo[1,2-a]pyridine-2-carboxamide], the concentration giving a half-maximal response (EC50) under setting [1] lay in the range of 1000 to 5000 nM.
As to `CC(C)(C)OC(=O)N1CCCn2nc(C(=O)Nc3c[nH]c4cc(F)c(F)cc34)cc2C1` [Compound 114, tert-butyl 2-[(5,6-difluoro-1H-indol-3-yl)carbamoyl]-4H,5H,6H,7H,8H-pyrazolo[1,5-a][1,4]diazepine-5-carboxylate], the half-maximal effective concentration (EC50) under setting [1] is 5000 to 100000 nM.
Take `O=C(Nc1c[nH]c2cc(F)c(F)cc12)C1Cc2[nH]nc(C(F)(F)F)c2C1` (stereo not shown) [Compound 115, N-(5,6-difluoro-1H-indol-3-yl)-3-(trifluoromethyl)-1H,4H,5H,6H-cyclopenta[c]pyrazole-5-carboxamide]: the EC50 under setting [1] lay within 5000 to 100000 nM.
Regarding `O=C(Nc1c[nH]c2cc(F)c(F)cc12)c1cc2ccc(Cl)cn2n1` [Compound 116, 6-chloro-N-(5,6-difluoro-1H-indol-3-yl)pyrazolo[1,5-a]pyridine-2-carboxamide], the EC50 under setting [1] lay in the range of 200 to 1000 nM.
Turning to `CC(C)(C)OC(=O)N1CCc2c(C(=O)Nc3c[nH]c4cc(F)c(F)cc34)ncn2CC1` [Compound 117, tert-butyl 1-[(5,6-difluoro-1H-indol-3-yl)carbamoyl]-5H,6H,7H,8H,9H-imidazo[1,5-d][1,4]diazepine-7-carboxylate], under setting [1], the EC50 was 5000 to 100000 nM.
In the case of `O=C(Nc1c[nH]c2cc(F)c(F)cc12)c1n[nH]c2cc(OC(F)(F)F)ccc12` [Compound 118], the EC50 under setting [1] lay within 200 to 1000 nM.
Still for that read-out and setting: under `O=C(Nc1c[nH]c2cc(F)c(F)cc12)c1cn2c(n1)CCC(C(F)(F)F)C2` (stereo not shown) [Compound 120, N-(5,6-difluoro-1H-indol-3-yl)-6-(trifluoromethyl)-5,6,7,8-tetrahydroimidazo[1,2-a]pyridine-2-carboxamide] stands 5000 to 100000 nM; under `O=C(Nc1c[nH]c2cc(F)c(F)cc12)c1cccc2nn(Cc3ccc(C(F)(F)F)cc3)cc12` [Compound 121], 200 to 1000 nM; under `O=C(Nc1c[nH]c2cc(F)c(F)cc12)c1cccc2c1cnn2Cc1ccc(C(F)(F)F)cc1` [Compound 122], 200 to 1000 nM.
For `CCC1Cc2ccc(C(=O)Nc3c[nH]c4cc(F)c(F)cc34)cc2C1` (stereo not shown) [Compound 123], the EC50 under setting [1] was in the range of 200 to 1000 nM.
For `O=C(Nc1c[nH]c2cc(F)c(F)cc12)c1ccc2c(c1)OCCCO2` [Compound 124, N-(5,6-difluoro-1H-indol-3-yl)-3,4-dihydro-2H-benzo[b][1,4]dioxepine-7-carboxamide], the EC50 under setting [1] is 200 to 1000 nM.
With `O=C(Nc1c[nH]c2cc(F)c(F)cc12)c1n[nH]c2cc(OCC(F)(F)F)ccc12` [Compound 125], the EC50 under setting [1] was 40 to 200 nM.
On the same count and under the same terms, in the case of `O=C(Nc1c[nH]c2cc(F)c(F)cc12)c1n[nH]c2cc(NCC(F)(F)F)ccc12` [Compound 126] it was 40 to 200 nM and 200 to 1000 nM; in that of `O=C(Nc1c[nH]c2cc(F)c(F)cc12)c1n[nH]c2cc(OCC(F)(F)F)ncc12` [Compound 128], 200 to 1000 nM; in that of `O=C(Nc1c[nH]c2cc(F)c(F)cc12)c1n[nH]c2nc(OCC(F)(F)F)ccc12` [Compound 129], 200 to 1000 nM.
`Cc1nc(C(=O)Nc2c[nH]c3cc(F)c(F)cc23)c2ccc(C(F)(F)F)cn12` [Compound 134]: under setting [1], the EC50 is 5000 to 100000 nM.
Consider `O=C(Nc1c[nH]c2cc(F)c(F)cc12)c1cccc2nn(CCC(F)(F)F)cc12` [Compound 137], for which the concentration for a half-maximal effect (EC50) under setting [1] fell in the range of 200 to 1000 nM.
`O=C(Nc1c[nH]c2cc(F)c(F)cc12)c1cccc2c1cnn2CCC(F)(F)F` [Compound 138]: under setting [1], the EC50 is 1000 to 5000 nM.
For the compound `O=C(Nc1c[nH]c2ccc(Cl)cc12)c1n[nH]c2c1CN(Cc1ccc(C(F)(F)F)cc1)C2` [Compound 142, N-(5-chloro-1H-indol-3-yl)-5-(4-(trifluoromethyl)benzyl)-1,4,5,6-tetrahydropyrrolo[3,4-c]pyrazole-3-carboxamide], the concentration giving a half-maximal response (EC50) under setting [1] fell in the range of 200 to 1000 nM.
In the case of `O=C(Nc1c[nH]c2ccc(Cl)cc12)c1n[nH]c2cc(N3CCC(F)(F)CC3)ncc12` [Compound 143, N-(5-chloro-1H-indol-3-yl)-6-(4,4-difluoropiperidin-1-yl)-1H-pyrazolo[4,3-c]pyridine-3-carboxamide], under setting [1], the EC50 fell in the range of 5000 to 100000 nM.
Take `O=C(Nc1c[nH]c2ccc(Cl)cc12)c1n[nH]c2cc(N3CCN(CC(F)(F)F)CC3)ccc12` [Compound 144]: the concentration for a half-maximal effect (EC50) under setting [1] was 40 to 200 nM.
In the case of `O=C(Nc1c[nH]c2ccc(Cl)cc12)c1n[nH]c2cc(N3CCC(F)(F)CC3)ccc12` [Compound 146], the EC50 under setting [1] lay in the range of 40 to 200 nM.
The same measure, in the same setting: in the case of `O=C(Nc1c[nH]c2ccc(Cl)cc12)c1noc2cc(N3CCC(F)(F)CC3)ccc12` [Compound 147] it was 40 to 200 nM; in that of `O=C(Nc1c[nH]c2ccccc12)c1n[nH]c2cc(OCC(F)(F)F)ccc12` [Compound 148, N-(1H-indol-3-yl)-6-(2,2,2-trifluoroethoxy)-1H-indazole-3-carboxamide], 40 to 200 nM.
In the case of `O=C(Nc1c[nH]c2ccc(Cl)cc12)c1n[nH]c2cc(OCC(F)(F)F)ccc12` [Compound 149], the EC50 under setting [1] fell in the range of 40 to 200 nM.
The same measure, in the same setting: in the case of `O=C(Nc1c[nH]c2cc(F)c(F)cc12)c1cnc2cc(OCC(F)(F)F)ccn12` [Compound 150] it was 40 to 200 nM.
In the case of `O=C(Nc1c[nH]c2cc(F)c(F)cc12)c1n[nH]c2c1CN(CC(F)(F)F)C2` [Compound 151], the EC50 under setting [1] lay within 5000 to 100000 nM.
With `O=C(Nc1c[nH]c2cc(F)c(F)cc12)c1n[nH]c2nc(N3CCC(F)(F)CC3)c(Cl)cc12` [Compound 152], the EC50 under setting [1] is 200 to 1000 nM.
Consider `O=C(Nc1c[nH]c2cc(F)c(F)cc12)c1n[nH]c2nc(N3CCC(F)(F)CC3)ccc12` [Compound 154], for which, under setting [1], the EC50 is 200 to 1000 nM.
The same measure, in the same setting: under `O=C(Nc1c[nH]c2cc(F)c(F)cc12)c1n[nH]c2cc(N3CCC(F)(F)CC3)ccc12` [Compound 155] stands 40 to 200 nM; under `CC1(C)CCc2c(C(=O)Nc3c[nH]c4cc(F)c(F)cc34)n[nH]c2C1` [Compound 156], 1000 to 5000 nM; under `Cn1nc2cc(C(F)(F)F)ccc2c1C(=O)Nc1c[nH]c2cc(F)c(F)cc12` [Compound 157], 5000 to 100000 nM.
With `Cn1nc(C(=O)Nc2c[nH]c3cc(F)c(F)cc23)c2ccc(C(F)(F)F)cc21` [Compound 158], the EC50 under setting [1] was in the range of 200 to 1000 nM.
